One data set relates to NSCLC H460 tumor. Kind of data set: Mouse Xenograft Model (NSCLC H460). It is filed as in vivo. On the procedure: The small molecule compound FN1-8 was tested in vivo in the mouse xenograft model bearing human cancer cells. Briefly, female athymic nude mice strain NCRNU-M (5-10 weeks old, 20-25 grams in weight; Taconic, Germantown, N.Y.) was maintained in pathogen-free conditions. Three human cancer cell lines: NSCLC H460, melanoma LOX, (both showing Gli3 activation), and colon cancer HT29 (no Gli3 activation, as a negative control), were used. Ten mice were used in each group and injected s.c. with 3×10^6 cancer cells in the dorsal area in a volume of 100 μl. After inoculation, human cancer cells were allowed to grow in mice for 7 days to become visible tumor nodules. Animals were then injected with small molecule compound FN1-8 at a dose of 50 mg/kg body weight (1 mg/mouse per day). DMSO alone was used as control. The compounds and controls were adjusted in 40 ul volume for i.p. injection in the abdomens of the mice. One mouse was sacrificed within 1 hour after the compound injection (after 6 injections) and its blood was collected. Then mass spectrometry was used to analyze the compound level in the blood sample to confirm the compound absorption into the blood stream of the mice. […] Tumor size was measured every three days, and tumor volumes were calculated using width (x) and length (y) (x^2y/2, where x<y). […]
In vivo efficacy study of small molecule compound FN1-8 were performed using a Mouse Xenograft Model (NSCLC H460). […] Tumor size (length and width according to their shapes) was measured with a caliper every three days. Tumor volumes were calculated using the equation […].
Three weeks after the initial tumor inoculation and the treatment as described above, tumors were dissected from the mice of each group and their weights were measured using a scale.
The in vivo efficacy study of small molecule compounds FN1-5 and FN1-8 in the Mouse Xenograft Model (NSCLC H460) was repeated using lower doses of the compounds. […] 24 days after the initial tumor inoculation, tumors were dissected from the mice of each group and their weights were measured using a scale. […]

Data set [1] relates to Hedgehog signaling pathway in HT29 tumor. In words: Semi-quantitative RT-PCR of Hh pathway genes in xenograft tumors. Conditions: HT29 xenograft tumor (negative control). The format is in vivo, mouse. The procedure:
(§1) To examine whether the lead compound FN1-8 suppressed tumor growth through inhibition of the Hedgehog signaling pathway in vivo, expression of the key components and direct target genes of the Hh pathway (e.g., Shh, Ptch1, Gli1, Gli2, Gli3, Dvl-3) were analyzed by semi-quantitative RT-PCR using total RNA isolated from the xenograft tumors. GAPDH served as a control. This RT-PCR analysis was performed using a “pooled” tumor from two randomly selected mice of each group with reasonable size tumors.

The test system of data set [2] is Hedgehog signaling pathway in NSCLC tumor (H460). The data set is described as above. It is filed as in vivo, mouse. The procedure: as §1
Data set [3] in a line: Body weight of mice after in vivo treatment. Details: species or system mouse. Conditions: three weeks after tumor inoculation and treatment. On the procedure: As one preliminary in vivo toxicity study of FN1-8, it was examined if there was loss of body weight in the mice after the FN1-8 treatment. Three weeks after the initial tumor inoculation and the treatment as described in the previous examples, body weights of DMSO control group (n=11) and FN1-8 treated group (n=8) were measured using a scale.

As for `O=C(NCCc1ccc(O)cc1)C1C(c2ccccc2)=NN(c2ccccc2)C1c1ccccc1` (stereo not drawn) [FN1-8, N-(2-(4-Hydroxyphenyl)ethyl)-1,3,5-triphenyl-4,5-dihydro-pyrazole-4-carboxyamide], the tumor growth entry in the data set with NSCLC H460 tumor (50 mg/kg i.p. daily for 2×6 days) is on record as “significantly suppressed”. Further, the tumor weight entry in the data set on NSCLC H460 tumor (50 mg/kg i.p. daily for 2×6 days, three weeks after inoculation) is given as “dramatically decreased”; in the data set on NSCLC H460 tumor (low dose 15 mg/kg i.p. daily for 2×6 days, 24 days after inoculation) it was “decreased”. The entries for the “Hh signaling in tumor (RT-PCR)” value in data set [1] and in data set [2] were “no noticeable changes” and “inhibited”, respectively. Moreover, the “loss of body weight” value in data set [3] is reported as “No noticeable loss of the body weight”.

The values are drawn from US7714014B2, “Targeting GLI proteins in human cancer by small molecules” (The Regents of the University of California, priority 2005, dated 2010).
